According to PubChem BioAssay AID449762 (Southern Research Specialized Biocontainment Screening …, 2010):
Results filed as inconclusive are left out.

System: M. tuberculosis H37Rv growth inhibition, 7H9 media
Assay: M. tuberculosis growth inhibition, HTS (AID 449762);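 also: bacterial growth assessed after seven days of incubation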
Settings: for IC90: measured here: IC90 growth inhibition

Question: Which IC50 does the source give for `Cc1cc(C)n(C(=O)c2ccc([N+](=O)[O-])cc2[N+](=O)[O-])n1` here?
Answer: Its IC50 is 4.57 µM.

Question: And the IC90?
Answer: The IC90 was 8.45 µM.

Question: With `Cn1nc(C(C)(C)C)cc1NC(=O)Nc1cc(Cl)cc(Cl)c1` as the molecule, how does the IC50 read?
Answer: Its IC50 is 18.5 µM.

Question: And the IC90?
Answer: Its IC90 is 26.3 µM.

Question: Which IC50 does the source give for `CN(C)[C@@H]1C(=O)C(C(N)=O)=C(O)[C@@]2(O)C(=O)C3=C(O)c4c(O)cccc4[C@@](C)(O)C3C[C@@H]12` (stereo partly drawn) here?
Answer: Its IC50 is 5.95 µM.

Question: And the IC90?
Answer: The IC90 was 15 µM.

Question: What does the source list for `On1onc2c3cc(-c4ccccc4)nc3ccc21`?
Answer: IC50: < 0.2 µM; IC90: < 0.2 µM

Question: What does the source list for `Cc1cc(=O)n2[nH]c(Nc3cccc(Cl)c3)nc2n1`?
Answer: IC50: 20.4 µM; IC90: 33 µM

Question: Which results are given for `CC(=O)/C=C(\C)Nc1ccccc1O`?
Answer: IC50: 3.57 µM; IC90: 6.18 µM

Question: For `CN1OC(COC(=O)c2ccc(Cl)cc2Cl)CC1c1ccccc1` (stereo not drawn), which IC50 is on record?
Answer: The IC50 was 2.43 µM.

Question: And the IC90?
Answer: The IC90 was 16.3 µM.

Question: Which results are given for `O=C(NCCc1ccccc1)[C@@H]1CC=C[C@@H]2CCN(Cc3ccc(Cl)c(Cl)c3)C(=O)[C@@H]21`?
Answer: IC50: 51.3 µM; IC90: 79.1 µM

Question: With `O=C(CCC(=O)OCc1ccc(C(=O)Oc2ccc(Cl)cc2)cc1)Nc1ccccc1` as the molecule, how does the IC50 read?
Answer: Its IC50 is 16.4 µM.

Question: What about the IC90 of the same molecule?
Answer: The IC90 was 44 µM.

Question: `O=c1c(O)c(-c2cccs2)oc2ccccc12` was tested. Which IC50 did it give?
Answer: Its IC50 is 12 µM.

Question: And the IC90?
Answer: Its IC90 is over 100 µM.

Question: For `N=c1oc2cc(O)ccc2cc1C(=O)Nc1ccc(Br)cc1`, which IC50 is on record?
Answer: Its IC50 is 0.86 µM.

Question: What about the IC90 of the same molecule?
Answer: The IC90 was 4.2 µM.

Question: For `Cc1c([N+](=O)[O-])cnc(Sc2ccccc2)c1[N+](=O)[O-]`, which IC50 is on record?
Answer: Its IC50 is 2.01 µM.

Question: What about the IC90 of the same molecule?
Answer: Its IC90 is 7.59 µM.

Question: Which IC50 does the source give for `C[n+]1c(-c2ccccc2)cc(CCCCc2cc(-c3ccccc3)[n+](C)c(-c3ccccc3)c2)cc1-c1ccccc1` here?
Answer: Its IC50 is 17.3 µM.

Question: And the IC90?
Answer: The IC90 was 21.7 µM.

Question: Which results are given for `CCOC(=O)c1c(CC(C)C)csc1NC(=O)CCl`?
Answer: IC50: < 0.2 µM; IC90: 7.5 µM

Question: Which results are given for `O=S(Cc1ccc(Br)cc1)Cc1nnc(SCc2ccc(Cl)cc2)n1-c1ccccc1` (stereo not drawn)?
Answer: IC50: 91.1 µM; IC90: > 100 µM

Question: With `C=C(C)CSc1cc(C)c(C#N)c2nc3ccccc3n12` as the molecule, how does the IC50 read?
Answer: Its IC50 is 34.3 µM.

Question: What about the IC90 of the same molecule?
Answer: Its IC90 is 48.1 µM.

Question: For `CCCCOC(=O)c1c(C)oc2ccc(NS(=O)(=O)c3ccc4c5c(cccc35)C(=O)N4)cc12`, which IC50 is on record?
Answer: The IC50 was 78.7 µM.

Question: And the IC90?
Answer: The IC90 was over 100 µM.

Question: Which results are given for `Cc1cccc(/C=C/C(=O)c2ccc([N+](=O)[O-])o2)c1`?
Answer: IC50: < 0.2 µM; IC90: < 0.2 µM

Question: How did the IC50 turn out when `COc1ccccc1C1CC(c2ccc(Cl)cc2)Nc2ncnn21` (stereo not drawn) was run?
Answer: The IC50 was 11 µM.

Question: What about the IC90 of the same molecule?
Answer: Its IC90 is 17.7 µM.

Question: Which IC50 does the source give for `O=C(N/N=C\c1ccc[nH]1)c1cncc(Br)c1` here?
Answer: Its IC50 is 25.2 µM.

Question: What about the IC90 of the same molecule?
Answer: The IC90 was 49 µM.

Question: What does the source list for `Cc1nn(CCc2nn[nH]n2)c2nc(-c3ccc(Br)cc3)cc(C(F)(F)F)c12`?
Answer: IC50: 4.64 µM; IC90: 10.8 µM

Question: `Cc1cc(C)c2nc(-c3ccncc3)cc(C(=O)N3CCN(Cc4ccccc4Cl)CC3)c2c1` was tested. Which IC50 did it give?
Answer: Its IC50 is 23.2 µM.

Question: And the IC90?
Answer: Its IC90 is 26.1 µM.

Question: `CCc1nnc(NC(=O)CN2CCN(c3nc(-c4ccccc4)cs3)CC2)s1` was tested. Which IC50 did it give?
Answer: The IC50 was 45.8 µM.

Question: And the IC90?
Answer: The IC90 was 52.4 µM.

Question: Which results are given for `CCc1nc(N2CCN(C(C)=O)CC2)c2c3c(sc2n1)CC(C(C)(C)C)CC3` (stereo not drawn)?
Answer: IC50: 12.8 µM; IC90: 14.1 µM

Question: `Nc1nc2ccccc2n1/N=C/c1ccc(Br)cc1` was tested. Which IC50 did it give?
Answer: Its IC50 is 12.2 µM.

Question: What about the IC90 of the same molecule?
Answer: The IC90 was over 25 µM.

Question: How did the IC50 turn out when `CCCCOc1ccc(Br)cc1/C(C)=N/NC1=NCCN1` was run?
Answer: Its IC50 is 20.7 µM.

Question: And the IC90?
Answer: Its IC90 is 33.3 µM.

Question: With `CCn1c(C)nc2cc(C(=O)OC(C(F)(F)C(F)F)C(F)(F)C(F)F)ccc21` as the molecule, how does the IC50 read?
Answer: Its IC50 is 17.8 µM.

Question: What about the IC90 of the same molecule?
Answer: The IC90 was 26.1 µM.

Question: `C/C(=N\NC(N)=S)C1C2C3CC4C5CC(C42)C1C53` (stereo not drawn) was tested. Which IC50 did it give?
Answer: The IC50 was 28.1 µM.

Question: And the IC90?
Answer: Its IC90 is 58.2 µM.

Question: `CS(=O)(=O)c1ncc(Cl)c(C(=O)Nc2ccc(OC(F)F)cc2)n1` was tested. Which IC50 did it give?
Answer: The IC50 was 5.68 µM.

Question: And the IC90?
Answer: The IC90 was 15.5 µM.

Question: Which results are given for `Cn1c(/C=N/Nc2nc3ccccc3[nH]2)nc2ccccc21`?
Answer: IC50: 40.1 µM; IC90: 61.4 µM

Question: With `COc1cc2[nH]c3c(N4CCN(c5ccccn5)CC4)ncnc3c2cc1OC` as the molecule, how does the IC50 read?
Answer: Its IC50 is 13.6 µM.

Question: What about the IC90 of the same molecule?
Answer: Its IC90 is over 50 µM.

Question: Which IC50 does the source give for `COc1cc(/C=C(\C#N)c2nc3c(s2)CC(C)CC3)ccc1O` (stereo not drawn) here?
Answer: Its IC50 is 31.5 µM.

Question: And the IC90?
Answer: Its IC90 is 63.5 µM.

Question: Which results are given for `Cc1sc2nc(CN(C(=O)NC3CCCCC3)C3CCCC3)[nH]c(=O)c2c1C`?
Answer: IC50: 30.5 µM; IC90: > 100 µM

Question: With `Cc1c(C(=O)N(C)C)sc2nc(-c3ccccn3)[nH]c(=O)c12` as the molecule, how does the IC50 read?
Answer: Its IC50 is 5.89 µM.

Question: What about the IC90 of the same molecule?
Answer: The IC90 was 16.9 µM.

Question: With `O=c1[nH]c(=O)n(C2CCCO2)cc1F` (stereo not drawn) as the molecule, how does the IC50 read?
Answer: Its IC50 is 29 µM.

Question: And the IC90?
Answer: The IC90 was 55.3 µM.

Question: With `CCOC(=O)CSc1nnc(-c2ccc(S(=O)(=O)NCc3cccs3)cc2)o1` as the molecule, how does the IC50 read?
Answer: The IC50 was 2.55 µM.

Question: What about the IC90 of the same molecule?
Answer: The IC90 was 4.55 µM.

Question: For `COC(=O)c1cc(-c2cccc(OC)c2)on1`, which IC50 is on record?
Answer: Its IC50 is 0.37 µM.

Question: And the IC90?
Answer: Its IC90 is over 100 µM.

Question: `O=C(NCC(c1cccs1)N1CCOCC1)c1cc([N+](=O)[O-])cc([N+](=O)[O-])c1` (stereo not drawn) was tested. Which IC50 did it give?
Answer: The IC50 was 0.72 µM.

Question: What about the IC90 of the same molecule?
Answer: The IC90 was 0.81 µM.

Question: `Cc1ccc(Cn2ccsc2=NC(=O)CCl)cc1` was tested. Which IC50 did it give?
Answer: The IC50 was 0.57 µM.

Question: And the IC90?
Answer: The IC90 was 1.52 µM.

Question: With `Cc1noc2ncnc(Sc3ccc(Cl)cc3)c12` as the molecule, how does the IC50 read?
Answer: The IC50 was 82.9 µM.

Question: And the IC90?
Answer: Its IC90 is over 100 µM.

Question: With `Cc1ccc(OC/C(O)=C(\C#N)c2nc3ccccc3s2)cc1` as the molecule, how does the IC50 read?
Answer: The IC50 was 20.7 µM.

Question: And the IC90?
Answer: Its IC90 is 34 µM.

Question: With `Nc1nc(CN2CCN(c3ccccc3F)CC2)nc(N2CCCc3ccccc32)n1` as the molecule, how does the IC50 read?
Answer: Its IC50 is 4.99 µM.

Question: What about the IC90 of the same molecule?
Answer: The IC90 was 14 µM.

Question: For `CC(C)(C)C1CCc2c(sc3nc(SCC(N)=O)nc(N)c23)C1` (stereo not drawn), which IC50 is on record?
Answer: Its IC50 is 15.4 µM.

Question: What about the IC90 of the same molecule?
Answer: The IC90 was 31.8 µM.

Question: With `COCCCn1c(SCc2cccc(OC)c2)nc2cc(OC)c(OC)cc2c1=N` as the molecule, how does the IC50 read?
Answer: Its IC50 is 37 µM.

Question: What about the IC90 of the same molecule?
Answer: Its IC90 is 49 µM.
